# Laboratory results from patent US6407067B1, “Salts of thrombin inhibitors” (BASF Aktiengesellschaft, priority 1999, dated 2002).
# How the values were obtained:
# [1] = Crystallinity assessed by Debye-Scherrer photographs; type: physicochemical; details: isolated solid
# Source text: The crystallinity of the samples has been assessed on the basis of Debye-Scherrer photographs.
# [2] = Stability test (storage at 70° C., 1 bar, content by HPLC); type: physicochemical
# Procedure: The thermal decomposition of the compounds of the general formula I and II has been investigated in a stability test. […]
# The substances were stored at 70° C., 1 bar. Measurements were in HPLC % areas
Compound,Debye-Scherrer photograph (crystallinity) [1],Stability on storage in an open vessel (relative content by HPLC) ([2]; 0 days) [HPLC % areas],Stability on storage in an open vessel (relative content by HPLC) ([2]; 7 days),Stability on storage in an open vessel (relative content by HPLC) ([2]; 14 days)
"CC1=CC(=O)NS(=O)(=O)O1.N=C(N)c1ccc(CNC(=O)[C@@H]2C=CCN2C(=O)[C@@H](CC2CCCCC2)NCC(=O)O)cn1 [Acesulfame salt, N-((Hydroxycarbonyl)methylene)-(R)-cyclohexylalanyl-(S)-3,4-dehydroproline 6-Amidino-3-picolinylamide Acesulfamate]",crystalline,100,"96,7 HPLC % areas","88,4 HPLC % areas"
"CC(=O)O.N=C(N)c1ccc(CNC(=O)[C@@H]2C=CCN2C(=O)[C@@H](CC2CCCCC2)NCC(=O)O)cn1 [Acetate, N-((Hydroxycarbonyl)methylene)-(R)-cyclohexylalanyl-(S)-3,4-d ehydroproline 6-Amidino-3-picolinylamide Acetate]",amorphous,100,92.6 HPLC % areas,87.2 HPLC % areas
"N=C(N)c1ccc(CNC(=O)[C@@H]2C=CCN2C(=O)[C@@H](CC2CCCCC2)NCC(=O)O)cn1.O=C(O)/C=C/C(=O)O [Fumarate, N-((hydroxycarbonyl)methylene)-(R)-cyclohexylalanyl-(S)-3,4-dehydroproline 6-Amidino-3-picolinylamide Fumarate]",amorphous,100,87.9 HPLC % areas,87.1 HPLC % areas
"N=C(N)c1ccc(CNC(=O)[C@@H]2C=CCN2C(=O)[C@@H](CC2CCCCC2)NCC(=O)O)cn1.O=C1NS(=O)(=O)c2ccccc21 [Saccharin salt, N-((Hydroxycarbonyl)methylene)-(R)-cyclohexylalanyl-(S)-3,4-dehydroproline 6-Amidino-3-picolinylamide Saccharinate]",crystalline,100,100 HPLC % areas,101 HPLC % areas
"N-((Hydroxycarbonyl)methylene)-(R)-cyclohexylalanyl-(S)-3,4-dehydroproline 6-Amidino-3-picolinylamide (Betaine) [1st Example]",amorphous,–,–,–
